Reference: patent US11357817B2, “Immunoproteasome inhibitor” (The Regents of the University of California, priority 2017, dated 2022)

Columns and labels:
HepG2 cells = experiment: HepG2 cytotoxicity assay; assay type: cell-based; details: Homo sapiens
Description: The liver-stage and HepG2 toxicity assays were performed as previously reported (35). Briefly, HepG2-A16-CD81EGFP, human hepatocarcinoma HepG2 cells stably transformed to express the tetraspanin CD81 receptor (36, 37) and thus susceptible to P. berghei infection, were cultured at 37° C. in 5% CO2 in DMEM (Life Technologies, Calif.) supplemented with 10% FBS, 0.29 mg/ml glutamine, 100 unit penicillin and 100 μg/ml streptomycin. For both the P. berghei-luciferase and HepG2 cytotoxicity assays, 3×10^3 of the HepG2-A16-CD81EGFP cells in 5 μl of assay medium (DMEM without Phenol Red (Life Technologies, Calif.), 5% FBS, and 5× Pen Strep Glutamine (Life Technologies, Calif.)) at concentration 6×10^5 cells/ml were seeded in 1536-well plates (Greiner BioOne white solid bottom custom GNF mold) 20-26 hours prior to the actual infection. 18 hours prior to infection, 50 nl of compound in DMSO (0.5% final DMSO concentration per well) were transferred with Acoustic Transfer System (ATS) (Biosero) into the assay plates. Atovaquone (12-point serial dilution starting at 10 μM) and Puromycin (12-point serial dilution starting at 10 μM) were used as positive controls for Pb. liver stage assay and HepG2 cytotoxicity respectively. 0.5% DMSO was used as negative control for the both assays.
An. stephensi mosquitoes, infected with P. berghei-luciferase, were provided by the New York University Insectary. P. berghei-luciferase sporozoites were freshly dissected from the infected A. stephensi mosquito salivary glands, filtered twice through a 20 μm nylon net filter using Steriflip Vacuum-Driven Filtration System (Millipore), counted in a hemocytometer, and then adjusted to final concentration 200 sporozoites per μl in the assay media. […] The HepG2-A16-CD81EGFP cell designated for toxicity studies were left uninfected, with 5 ul of additional assay media added to each well to maintain equal concentrations of compounds with P. berghei-luciferase infected plates. After incubation at 37° C. for 48 hours the exoerythrocytic growth and HepG2-A16-CD81EGFP cell viability were quantified by a bioluminescence measurement.
The HepG2 cytotoxicity was assessed by removing the media through an inverted spin of the plates at 150 g for 30 s and addition of 2 μL of CellTiterGlo reagent (Promega diluted 1:2 with deionized water) per well using the MicroFlo liquid handler (BioTek). Immediately after addition of the luminescence reagent, the plates were vortexed for 10 s and read with an EnVision Multilabel reader (PerkinElmer). IC50 values were obtained as above.

P. falciparum Dd2 = P. falciparum Dd2 asexual blood stage SYBR Green I compound sensitivity assay; assay type: cell-based, Plasmodium falciparum; details: for Selectivity Index: P. falciparum activity versus HepG2 activity; for IC50: asexual blood stage, 72 hour SYBR green assay
Description: P. falciparum Dd2 strain parasites were cultured under standard conditions (31), using RPMI media supplemented with 0.05 mg/ml gentamycin, 0.014 mg/mL hypoxanthine (prepared fresh), 38.4 mM HEPES, 0.2% Sodium Bicarbonate, 3.4 mM Sodium Hydroxide, 0.05% O+ Human Serum (Denatured at […] for 40 min and From Interstate Blood Bank, Memphis, Tenn.) and 0.0025% Albumax). Human O+ whole blood was obtained from TSRI blood bank (La Jolla, Calif.). Leukocyte-free erythrocytes are stored at 50% hematocrit in RPMI-1640 screening media (as above, but without O+ human serum and with 2× albumax concentration) at 4° C. for one to three weeks before experimental use. Cultures were monitored every one to two days via Giemsa-stained thin smears.
Compound susceptibility was measured using the malaria SYBR Green I-based fluorescence assay (32). Asynchronous P. falciparum parasites (Dd2 strain) were cultured in standard conditions before being plated for the assays. Each compound was tested over 72 hours in technical duplicates on a twelve-point concentration curve prepared by three-fold dilution from 6.7 μM to 0.11 nM. At least three independent experiments were carried out for IC50 determination. Artemisinin and chloroquine were used as controls. IC50 values were obtained using normalized fluorescence intensity from SYBR green I and analyzed via non-linear variable slope four-parameter regression curve-fitting model in Prism 6 (GraphPad Software Inc).

[1] = Plasmodium falciparum, DD2, 72 h

Row | IC50 (P. falciparum Dd2; listed as 3) [nM] | IC50 (P. falciparum Dd2; [1]) [nM] | IC50 (P. falciparum Dd2; listed as 20) [nM] | Structure (SMILES) | IC50 (HepG2 cells) [nM] | Selectivity Index (P. falciparum Dd2; listed as 3) | Selectivity Index (P. falciparum Dd2) | increase in selectivity (P. falciparum Dd2; D-amino acid at P3 in place of L-Val of analog 1, comparator not stated) [fold] | Selectivity Index (P. falciparum Dd2; listed as 20)
1 | 3.28 ± 0.674 |  |  | CCCCCC(=O)N[C@@H](Cc1ccncc1)C(=O)N[C@@H](CCCC)C(=O)N[C@@H](CC(C)C)C(=O)[C@@]1(C)CO1 [Analog 3, (S)-2-((S)-2-hexanamido-3-(pyridin-4-yl)propanamido)-N—((S)-4-methyl-1-((R)-2-methyloxiran-2-yl)-1-oxopentan-2-yl)hexanamide] | < 0.283 | 0.09 |  |  | 
2 |  | 3.11 ± 0.026 |  | CCCCCC(=O)N[C@@H](Cc1c[nH]c2ccccc12)C(=O)N[C@@H](CCCC)C(=O)N[C@@H](CC(C)C)C(=O)[C@@]1(C)CO1 [Analog 6, (S)-2-((S)-2-hexanamido-3-(1H-indol-3-yl)propanamido)-N—((S)-4-methyl-1-((R)-2-methyloxiran-2-yl)-1-oxopentan-2-yl)hexanamide] | 3.27 ± 1.29 |  | 1.05 |  | 
3 |  | 5.55 ± 0.23 |  | CCCCCC(=O)N[C@@H](Cc1ccc(NC(=O)OC(C)(C)C)cc1)C(=O)N[C@@H](CCCC)C(=O)N[C@@H](CC(C)C)C(=O)[C@@]1(C)CO1 [Analog 5, tert-butyl (4-((S)-2-hexanamido-3-(((S)-1-(((S)-4-methyl-1-((R)-2-methyloxiran-2-yl)-1-oxopentan-2-yl)amino)-1-oxohexan-2-yl)amino)-3-oxopropyl)phenyl)carbamate] | 80.2 ± 26.5 |  | 14.45 |  | 
4 |  | 5.45 ± 2.49 |  | CCCCCC(=O)N[C@@H](Cc1ccc(NC(=O)OC(C)(C)C)cc1)C(=O)N[C@@H](CCCC)C(=O)N[C@@H](Cc1ccccc1)C(=O)[C@@]1(C)CO1 [Analog 10, tert-butyl (4-((S)-2-hexanamido-3-(((S)-1-(((S)-1-((R)-2-methyloxiran-2-yl)-1-oxo-3-phenylpropan-2-yl)amino)-1-oxohexan-2-yl)amino)-3-oxopropyl)phenyl)carbamate] | 478 ± 126 |  | 87.71 |  | 
5 |  | 81.8 ± 14 |  | CCCCCC(=O)N[C@@H](Cc1ccc(N)cc1)C(=O)N[C@@H](CCCC)C(=O)N[C@@H](Cc1ccccc1)C(=O)[C@@]1(C)CO1 [Analog 9, (S)-2-((S)-3-(4-aminophenyl)-2-hexanamidopropanamido)-N—((S)-1-((R)-2-methyloxiran-2-yl)-1-oxo-3-phenylpropan-2-yl)hexanamide] | 3410 ± 2310 |  | 41.69 |  | 
6 |  | 3.87 ± 1.37 |  | CCCCCC(=O)N[C@@H](Cc1ccncc1)C(=O)N[C@@H](CCCC)C(=O)N[C@@H](Cc1ccccc1)C(=O)[C@@]1(C)CO1 [Analog 8, (S)-2-((S)-2-hexanamido-3-(pyridin-4-yl)propanamido)-N—((S)-1-((R)-2-methyloxiran-2-yl)-1-oxo-3-phenylpropan-2-yl)hexanamide] | < 0.283 |  | 0.07 |  | 
7 |  | 6.7 ± 0.451 |  | CCCCCC(=O)N[C@@H](Cc1ccccc1)C(=O)N[C@@H](CCCC)C(=O)N[C@@H](Cc1ccccc1)C(=O)[C@@]1(C)CO1 [Analog 7, (S)-2-((S)-2-hexanamido-3-phenylpropanamido)-N—((S)-1-((R)-2-methyloxiran-2-yl)-1-oxo-3-phenylpropan-2-yl)hexanamide] | 30.8 ± 13.7 |  | 4.60 |  | 
8 |  | 2.92 ± 0.403 |  | CCCCCC(=O)N[C@H](Cc1c[nH]c2ccccc12)C(=O)N[C@@H](CCCC)C(=O)N[C@@H](CC(C)C)C(=O)[C@@]1(C)CO1 [Analog 19, (S)-2-((R)-2-hexanamido-3-(1H-indol-3-yl)propanamido)-N—((S)-4-methyl-1-((R)-2-methyloxiran-2-yl)-1-oxopentan-2-yl)hexanamide] | 915 ± 289 |  | 313.36 | 100 | 
9 |  | 9.77 ± 1.31 |  | CCCCCC(=O)N[C@@H](Cc1c[nH]c2ccccc12)C(=O)N[C@@H](CCCC)C(=O)N[C@@H](Cc1ccccc1)C(=O)[C@@]1(C)CO1 [Analog 11, (S)-2-((S)-2-hexanamido-3-(1H-indol-3-yl)propanamido)-N—((S)-1-((R)-2-methyloxiran-2-yl)-1-oxo-3-phenylpropan-2-yl)hexanamide] | 6.41 ± 2.26 |  | 0.66 |  | 
10 |  | 4.04 ± 0.759 |  | CCCCCC(=O)N[C@@H](Cc1ccccc1)C(=O)N[C@@H](CCCC)C(=O)N[C@@H](CC(C)C)C(=O)[C@@]1(C)CO1 [Analog 2, (S)-2-((S)-2-hexanamido-3-phenylpropanamido)-N—((S)-4-methyl-1-((R)-2-methyloxiran-2-yl)-1-oxopentan-2-yl)hexanamide] | 22.7 ± 8.42 |  | 5.62 |  | 
11 |  | 3.7 ± 0.144 |  | CCCCCC(=O)N[C@@H](Cc1c[nH]c2ccccc12)C(=O)N[C@@H](Cc1c[nH]c2ccccc12)C(=O)N[C@@H](CC(C)C)C(=O)[C@@]1(C)CO1 [Analog 16, N—((S)-1-(((S)-3-(1H-indol-3-yl)-1-(((S)-4-methyl-1-((R)-2-methyloxiran-2-yl)-1-oxopentan-2-yl)amino)-1-oxopropan-2-yl)amino)-3-(1H-indol-3-yl)-1-oxopropan-2-yl)hexanamide] | 11.7 ± 3.32 |  | 3.16 |  | 
12 |  | 5.99 ± 1.08 |  | CCCCCC(=O)N[C@@H](Cc1ccc(N)cc1)C(=O)N[C@@H](CCCC)C(=O)N[C@@H](CC(C)C)C(=O)[C@@]1(C)CO1 [Analog 4, (S)-2-((S)-3-(4-aminophenyl)-2-hexanamidopropanamido)-N—((S)-4-methyl-1-((R)-2-methyloxiran-2-yl)-1-oxopentan-2-yl)hexanamide] | 6.32 ± 4.99 |  | 1.06 |  | 
13 |  | 9.38 ± 0.667 |  | CCCCCC(=O)N[C@@H](Cc1c[nH]c2ccccc12)C(=O)N[C@@H](Cc1c[nH]c2ccccc12)C(=O)N[C@@H](Cc1ccccc1)C(=O)[C@@]1(C)CO1 [Analog 17, N—((S)-1-(((S)-3-(1H-indol-3-yl)-1-(((S)-1-((R)-2-methyloxiran-2-yl)-1-oxo-3-phenylpropan-2-yl)amino)-1-oxopropan-2-yl)amino)-3-(1H-indol-3-yl)-1-oxopropan-2-yl)hexanamide] | 346 ± 86.2 |  | 36.89 |  | 
14 |  |  | 21.8 ± 3.67 | CCCCCC(=O)N[C@@H](Cc1ccncc1)C(=O)N[C@@H](CCCC)C(=O)N[C@@H](CC(C)C)C(=O)[C@@]1(C)CO1 [Analog 20] |  |  |  |  | 0.01

Row | Structure (SMILES) | IC50 (P. falciparum Dd2; listed as 3) [nM] | IC50 (P. falciparum Dd2; [1]) [nM] | IC50 (P. falciparum Dd2; listed as 20) [nM] | IC50 (HepG2 cells) [nM] | Selectivity Index (P. falciparum Dd2; listed as 3) | Selectivity Index (P. falciparum Dd2) | increase in selectivity (P. falciparum Dd2; D-amino acid at P3 in place of L-Val of analog 1, comparator not stated) [fold] | Selectivity Index (P. falciparum Dd2; listed as 20)
15 | CCCCCC(=O)NC(Cc1ccc(NC(=O)OC(C)(C)C)cc1)C(=O)N[C@@H](Cc1ccc(NC(=O)OC(C)(C)C)cc1)C(=O)N[C@@H](CC(C)C)C(=O)[C@@]1(C)CO1 (stereo in doubt) [Analog 14, tert-butyl (4-((R)-3-(((S)-3-(4-((tert-butoxycarbonyl)amino)phenyl)-1-(((S)-4-methyl-1-((R)-2-methyloxiran-2-yl)-1-oxopentan-2-yl)amino)-1-oxopropan-2-yl)amino)-2-hexanamido-3-oxopropyl)phenyl)carbamate] |  | 13.5 ± 4.69 |  | 118 ± 21.7 |  | 8.74 |  | 
16 | CCCCCC(=O)NC(Cc1ccc(NC(=O)OC(C)(C)C)cc1)C(=O)N[C@@H](Cc1ccc(NC(=O)OC(C)(C)C)cc1)C(=O)N[C@@H](Cc1ccccc1)C(=O)[C@@]1(C)CO1 (stereo in doubt) [Analog 15, tert-butyl (4-((R)-3-(((S)-3-(4-((tert-butoxycarbonyl)amino)phenyl)-1-(((S)-1-((R)-2-methyloxiran-2-yl)-1-oxo-3-phenylpropan-2-yl)amino)-1-oxopropan-2-yl)amino)-2-hexanamido-3-oxopropyl)phenyl)carbamate] |  | 12.2 ± 3.83 |  | 45.7 ± 15.7 |  | 3.75 |  | 
